Experiments:
[1] = test system: β-amyloid precursor protein (βAPP); test: Western immunoblot of βAPP (cell lysates) and sAPP (conditioned media) in PC12 cells; conditions: day 3, relative to untreated
[2] = test system: synaptophysin; test: Synaptophysin expression in PC12 cells (Western blot); type: cell-based, rat; conditions: PC12 cell lysates, relative to untreated
Protocol: The synaptophysin monoclonal antibody (Oncogene Research Products, San Diego Calif.), which stains neurosecretory vesicles of PC12 cells, was used. The membranes were blocked with 20 mM Tris, 500 mM NaCl pH 7.4, 1% (w/v) casein (BioRad, San Diego Calif.) at 37° C. for 1 hour. Primary antibody was diluted in block and incubated with the proteins overnight at 4° C. The membrane was vigorously washed with 20 mM Tris pH 7.4, 150 mM NaCl and 0.05% Tween-20 (TBST), three times for 15 minutes at room temperature. The peroxidase-linked secondary antibody in block was incubated with the membrane for 2 hours at room temperature. Peroxidase-linked anti-mouse IgM (Chemicon, Tenecula, Calif.) was used as the secondary antibody against synaptophysin. Excess antibody was washed off with three vigorous washes in TBST prior to incubation in ECL Plus (Amersham, Philadelphia, Pa.) for 5 minutes. The membrane was subsequently exposed to photographic film.

[3] = test system: cultured hippocampal neurons; test: Glutamate-induced apoptotic cell death in hippocampal neurons (Hoechst 33342); type: cell-based, rat; conditions: GLP-1 10 nM
Protocol: The fluorescent DNA binding dye Hoescht 33342 was used to measure apoptotic cell death. […] Cells were fixed in a solution of 4% paraformaldehyde in PBS and membranes were permeabilized with 0.2% Trition X-100. Following incubation with Hoechst 33342 (1 μM) for 30 min, nuclei were visualized under epifluorescence illumination (340 nm excitation, 510 nm barrier filter) using a 40× oil-immersion objective. Approximately 200 cells were counted in at least three separate dishes for each treatment condition, and experiments were repeated at least twice. Cells were considered apoptotic if nuclear DNA was fragmented or condensed, whereas cells with nuclear DNA of a more diffuse and uniform distribution, were considered viable. At the time of counting, the investigator was unaware of the identity of the treatment groups. The percentage of cells with condensed or fragmented nuclei was determined in each culture.

[4] = test system: Aβ1-40; test: Aβ1-40 in whole brain homogenates after i.c.v. infusion in control mice; type: in vivo, mouse; conditions: 48 h
Protocol: Lean db+/db+ control male mice (n=24) were anaesthetized with 50 mg/kg pentobarbitone and placed in a stereotaxic surgical frame with mouse adaptor (David Kopf Instruments, Tujunga, Calif.) using temporal bone cup holders. […] After 48 h all animals were sacrificed by cervical dislocation, the brains removed and rapidly frozen in liquid nitrogen. Brains were pulverized and stored at −80° C. prior to assaying for Aβ levels.
Equivalent volumes of conditioned media and whole brain homogenate were assayed for Aβ1-40 using a sandwich ELISA (Suzuki et. al., 1994). The monoclonal antibody BAN50 (raised against Aβ1-16) was used as the capture antibody for all species of Aβ (Aβ1-40 and Aβ1-42), and the monoclonal antibody BA27 was used to specifically detect Aβ1-40 levels. Levels of Aβ1-40 were expressed in pM concentrations for conditioned media samples and finol/g for the mouse brain homogenates, as deduced from the appropriate standard curve run in parallel with the assay.

[5] = test system: Beta-2/NeuroD; test: Beta-2/NeuroD expression in PC12 cells (Western blot); type: cell-based, rat; conditions: PC12 cell lysates
From the text: Beta-2/NeuroD plays a major role in both neuronal and pancreatic endocrine development. […] Beta-2 expression in pancreatic endocrine cells, the intestine and the brain, activates insulin gene transcription and can induce neurons to differentiate. Mutant mice lacking the functional Beta-2 gene have a striking reduction in the number of insulin-producing beta cells, fail to develop mature islets and as a consequence develop severe diabetes often resulting in perinatal death (Naya et al 1997). Thus, Beta-2/NeuroD is essential for in vivo pancreatic development and neuronal differentiation.
NeuroD production was determined by Western blot analysis using anti-NeuroD antibody as described above for synaptophysin antibody, except peroxidase-linked anti-goat IgG (Santa Cruz Biotechnology Inc.) was used as the secondary antibody. […] Indeed, Noma et al (1999) have shown that overexpression of NeuroD in transfected PC12 cells induced morphological changes such as neurite-like processes and synapse-like structures, without a differentiating-inducing agent such as NGF.

[6] = Stability in human serum by MALDI mass spectrometry; type: in vitro ADME; conditions: 100% serum, 2 h at 37° C.
Protocol: Both compounds (100 μM, 100 μl ) were incubated in an equivalent volume of human serum at 37° C. for 2 h. In all cases, enzymatic reactions were quenched by the addition of trifluoroacetic acid (0.1% v/v final concentration). Samples were immediately analyzed using Matrix Assisted […] Desorption Ionisation-Time Of Flight (MALDI-TOF) mass spectrometry. A Micromass MALDI-TOF (Micromass, Beverly, Mass.) reflectron instrument was used at a laser energy of 15-25% over a mass range of 1000-6000 Da, with 5 laser shots summed per spectrum. Alpha-cyano-4-hydroxycinnamicacid (Sigma, St. Louis, Mo.) was used as a matrix and was prepared to a concentration of 10 mg/ml in a 8 mg/ml ammonium carbonate (Sigma, St. Louis, Mo.) buffer. One microlitre samples were diluted 50/50 v/v with matrix before being transferred to the MALDI plate.

[7] = test system: Aβ1-40; test: Aβ1-40 sandwich ELISA of PC12 conditioned media; type: cell-based, rat; conditions: PC12 cells, relative to control cells
[8] = test system: PC12 cells; test: Neurite outgrowth in PC12 cells; type: cell-based, rat; conditions: low serum medium
Protocol: Three dishes for each treatment condition were prepared. Treatments began 24 hours after seeding, once cells were well attached.
PC12 cells were grown on 60 mm dishes as above and cultured for four days. During this time neurite outgrowth was quantified daily. Five random fields of cells were evaluated per dish and the proportion of neurite-bearing cells was determined. Approximately 100 cells per field were scored for neurites equal to or greater in length than that of the cell body. A cell was only scored once, although it may have had more than one process per cell.

[9] = test system: cultured hippocampal cells; test: Survival of hippocampal neurons exposed to Aβ1-42 or Fe2+; type: cell-based, rat; conditions: 2 h pretreatment, then 2 μM Aβ (1-42) or 1 μM Fe2+ for 24 hours
Protocol: Hippocampi were removed from embryonic day 18 Sprague-Dawley rats, and cells were dissociated by mild trypsination and trituration and seeded onto polyethyleneimine-coated plastic 35 mm diameter dishes at a density of approximately 150 cells/mm^2 of culture surface. Cultures-were maintained in Neurobasal medium containing B-27 supplements (Gibco BRL, Carlsbad, Calif.), 2 mM L-glutamine, 1 mM Hepes and 0.001% gentamicin sulfate (Sigma, St. Louis, Mo.) in a 6% CO2/94% room air atmosphere at 37° C. When maintained under these conditions, the hippocampal cultures consisted of approximately 95% neurons and 5% astrocytes as determined by immunostaining with antibodies against the neuronal antigen NeuN and the astrocyte protein glial fibrillary acidic protein. Aβ1-42 was purchased from Bachem (Torrance, Calif.) and was prepared as a 1 mM stock solution in sterile water. FeSO4 was prepared as a 200 μM stock in sterile water.
Neuronal survival was quantified as described previously (Mark et. al., 1997). Briefly, viable neurons in premarked fields (10× objective) were counted before experimental treatment and at specified time points thereafter. […] Cultures were then exposed to 2 μM Aβ (1-42) or 1 μM Fe^2+ for 24 hours. […]

[10] = test system: Fischer-344 rats; test: Ibotenic acid induced cholinergic marker deficit, i.c.v. infusion

**Q.** Which “intracellular levels of βAPP (cell lysates)” value [1] does the source give for `CC[C@H](C)[C@H](NC(=O)[C@H](Cc1ccccc1)NC(=O)[C@H](CCC(=O)O)NC(=O)[C@H](CCCCN)NC(=O)[C@H](C)NC(=O)[C@H](C)NC(=O)[C@H](CCC(N)=O)NC(=O)CNC(=O)[C@H](CCC(=O)O)NC(=O)[C@H](CC(C)C)NC(=O)[C@H](Cc1ccc(O)cc1)NC(=O)[C@H](CO)NC(=O)[C@H](CO)NC(=O)[C@@H](NC(=O)[C@H](CC(=O)O)NC(=O)[C@H](CO)NC(=O)[C@@H](NC(=O)[C@H](Cc1ccccc1)NC(=O)[C@@H](NC(=O)CNC(=O)[C@H](CCC(=O)O)NC(=O)[C@H](C)NC(=O)[C@@H](N)Cc1c[nH]cn1)[C@@H](C)O)[C@@H](C)O)C(C)C)C(=O)N[C@@H](C)C(=O)N[C@@H](Cc1c[nH]c2ccccc12)C(=O)N[C@@H](CC(C)C)C(=O)N[C@H](C(=O)N[C@@H](CCCCN)C(=O)NCC(=O)N[C@@H](CCCNC(=N)N)C(N)=O)C(C)C` [GLP-1, glucagon-like peptide-1] here?
**A.** The value was “significantly decreased intracellular levels of βAPP”.

**Q.** What about the synaptophysin expression [2] of the same compound?
**A.** The synaptophysin expression was “dramatically reduced the expression of the synaptophysin protein”.

**Q.** And the “apoptotic cells, concurrent treatment with glutamate” value ([3]; 10 μM glutamate overnight, exendin-4 0.3 μM (medium alone 23%, glutamate 73%))?
**A.** The value was 24%.

**Q.** What about the “protection against apoptotic effects of glutamate” value ([3]; 10 μM glutamate, exendin-4 0.3 μM) of the same compound?
**A.** Its value is “completely protected”.

**Q.** And the “apoptotic cells, peptide alone” value ([3]; exendin-4 0.3 μM, no glutamate)?
**A.** Its value is 20%.

**Q.** And the “reduction of Aβ1-40 levels compared to vehicle” value ([4]; 3.3 μg GLP-1 i.c.v., not significant)?
**A.** Its value is 16%.

**Q.** And the “reduction of Aβ1-40 levels compared to vehicle” value ([4]; 6.6 μg GLP-1 i.c.v., p<0.01)?
**A.** Its value is 36%.

**Q.** What about the “Beta-2/NeuroD expression (43 kDa band)” value [5] of the same compound?
**A.** The value was “increased following GLP-1 treatment”.

**Q.** What about the “stability in human serum (N-terminal truncated product by MALDI)” value [6] of the same compound?
**A.** Its value is “considerable increase in the amount of N-terminal truncated product”.

**Q.** And the “Aβ1-40 levels in conditioned media” value [7]?
**A.** Its value is “did not significantly alter levels of Aβ1-40 production”.

**Q.** And the “differentiation / neurite outgrowth” value [8]?
**A.** The value was “produced similar effects on differentiation to those induced by NGF”.

**Q.** And the “concentration of maximum protective effect against death induced by Aβ1-42 and Fe2+” value [9]?
**A.** Its value is 10 nM.

**Q.** What about the “Abercrombie corrected ChAT-positive cell counts, Left basal nucleus (lesion side)” value ([10]; Lesion (ibotenic acid)) of the same compound?
**A.** The value was 404 ± 59.

**Q.** And the “Abercrombie corrected ChAT-positive cell counts, Right basal nucleus (infusion side)” value ([10]; Lesion (ibotenic acid))?
**A.** The value was 423 ± 45.

**Q.** What about the “Abercrombie corrected ChAT-positive cell counts, Left basal nucleus (lesion side)” value ([10]; Sham) of the same compound?
**A.** Its value is 517 ± 50.

**Q.** And the “Abercrombie corrected ChAT-positive cell counts, Right basal nucleus (infusion side)” value ([10]; Sham)?
**A.** Its value is 499 ± 41.

**Q.** And the “food and water intake, body weight during infusion” value ([10]; i.c.v. minipump infusion)?
**A.** The value was “modestly aphagic and adipsic”.

**Q.** What about the “loss of ChAT-immunoreactive cell bodies in left basal nucleus below that of the right basal nucleus” value ([10]; ibotenic acid lesion, 14 days i.c.v. infusion (vehicle 43%)) of the same compound?
**A.** Its value is 6%.
